Results on twelve molecules are retold here after US9084790B2, “Compositions and methods for treating skin cancer associated diseases” (The Trustees of the Unversity of Pennsylvania, priority 2011, dated 2015).

Data set [1] relates to precancerous lesion in K14-Fyn Y528F mice. In words: Topical treatment of precancerous lesion in K14-Fyn Y528F mice. Type of data set: in vivo. Conditions: 1 mM in DMSO topically once a day Monday-Friday for 20 times (FIG. 10). The text has this:
FIG. 10. Clearance of precancerous lesion and a cSCC by PP2 in three weeks. One millimolar PP2 in DMSO was topically applied once a day Monday-Friday for 20 times to a small precancerous lesion on the ear and to a cSCC on the neck. […] Small black rectangle=2 mm
One millimolar PP2 in DMSO was topically applied once a day Monday-Friday for 20 times to a small precancerous lesion on the ear and to a cSCC on the neck.

Data set [2] deals with cSCCs in K14-Fyn Y528F mice. Conditions: for outcome of treated cSCC in one mouse receiving both compounds: PP2 to a large facial cSCC, PP3 to a back cSCC of the same mouse, end of the 6 weeks (FIG. 7); for treated tumors demonstrating significant tumor regression as defined by a 75% or greater decrease in tumor area: approximately 25 μL of 1 mM topically, daily Monday thru Friday for 30 days, evaluated for 6 weeks, PP2 N=11 tumors, PP3 N=9 tumors, p<0.01; for regression of cSCCs: daily Monday-Friday for three weeks, final measurement one week after end of treatment.

The test system of data set [3] is UV-induced tumor formation in transgenic models overexpressing v-Ras^Ha. Conditions: cited from earlier work.
The next data set addresses EGFR (Homo sapiens, UniProt P00533). Conditions: cited from earlier work.
For data set [4] the following is noted: radio-labeled, applied in a white petrolatum ointment to rat skin; cited from earlier work.
[5] abbreviates: 1% topical ethanol or DMSO gel or ointment daily Monday-Friday, 15 mice with solitary cSCCs, example written in present tense.

Like-named read-outs stand apart in the source and are kept apart here. A value given as a limit tells only on which side of the number the result lay.

EGFR, sequence (P00533 25-1210, species assumed): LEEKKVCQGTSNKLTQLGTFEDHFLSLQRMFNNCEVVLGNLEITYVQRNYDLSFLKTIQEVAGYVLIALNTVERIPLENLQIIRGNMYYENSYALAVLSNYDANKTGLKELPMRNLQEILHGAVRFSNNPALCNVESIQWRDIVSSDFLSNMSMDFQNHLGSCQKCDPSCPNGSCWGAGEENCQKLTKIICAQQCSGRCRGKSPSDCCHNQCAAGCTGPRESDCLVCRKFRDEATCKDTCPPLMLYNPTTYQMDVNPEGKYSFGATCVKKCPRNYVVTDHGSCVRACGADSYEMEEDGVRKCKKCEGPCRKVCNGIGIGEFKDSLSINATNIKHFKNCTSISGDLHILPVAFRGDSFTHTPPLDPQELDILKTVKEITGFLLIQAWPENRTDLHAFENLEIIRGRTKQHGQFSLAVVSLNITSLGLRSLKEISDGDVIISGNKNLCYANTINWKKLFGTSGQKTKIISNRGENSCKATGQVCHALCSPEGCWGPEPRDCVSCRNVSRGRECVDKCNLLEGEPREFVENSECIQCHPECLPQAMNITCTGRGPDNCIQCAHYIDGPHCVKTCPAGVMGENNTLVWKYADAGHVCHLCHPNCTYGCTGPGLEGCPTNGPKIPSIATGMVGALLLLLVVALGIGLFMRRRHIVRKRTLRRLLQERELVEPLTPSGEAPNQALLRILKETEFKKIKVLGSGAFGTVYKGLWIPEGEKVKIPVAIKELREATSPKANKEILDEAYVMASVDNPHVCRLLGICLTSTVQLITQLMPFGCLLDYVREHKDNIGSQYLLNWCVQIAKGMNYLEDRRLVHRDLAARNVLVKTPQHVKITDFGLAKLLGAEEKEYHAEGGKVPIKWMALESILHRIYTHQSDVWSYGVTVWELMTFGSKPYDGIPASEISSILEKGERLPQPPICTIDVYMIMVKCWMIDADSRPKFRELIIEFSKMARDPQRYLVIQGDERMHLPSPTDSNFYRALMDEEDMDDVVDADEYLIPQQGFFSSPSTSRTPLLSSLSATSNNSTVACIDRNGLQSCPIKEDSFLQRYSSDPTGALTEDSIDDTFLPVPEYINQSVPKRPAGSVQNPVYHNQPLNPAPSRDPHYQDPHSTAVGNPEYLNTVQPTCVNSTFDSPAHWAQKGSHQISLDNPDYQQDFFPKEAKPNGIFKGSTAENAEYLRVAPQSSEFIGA

In the case of “4-amino-5-(4-chlorophenyl)-7-(t-butyl)pyrazolo[3,4-d]-pyrimidine [PP2]”, the “clearance of small precancerous lesion on the ear” value in data set [1] was “Clearance of both lesions was noted by three weeks”. The “clearance of cSCC on the neck” value in data set [2] (1 mM in DMSO topically once a day Monday-Friday for 20 times (FIG. 10)) is “Clearance of both lesions was noted by three weeks”. Also, the “clearance of cSCC covering the dorsum of the ear” value in data set [2] (1 mM in DMSO topically once a day Monday-Friday for 30 times, six weeks after beginning treatment (FIG. 9)) was “Prominent clearance of the cSCC”. For the same molecule, the “time by which clearance of a large facial cSCC was noted” value in data set [2] (1 mM in DMSO topically once a day Monday-Saturday for 20 times (FIG. 8)) is given as ≤ 21 days. In addition, in data set [2], the “outcome of treated cSCC in one mouse receiving both compounds” value is “regressed” and the “treated tumors demonstrating significant tumor regression as defined by a 75% or greater decrease in tumor area” value is listed as “All”. Also, the “histology of treated area: local skin reactions” value in data set [2] (ear cSCC treated 30 times with 1 mM in DMSO, compared with what might be seen with 5-FU) was “Notably absent are prominent inflammation, ulceration, or skin peeling”. For the same molecule, the “tumor regression (FIG. 11)” value in data set [2] (topical, five weeks) is recorded as “induces tumor regression in five weeks”.
In the case of `COc1cc2ncnc(Nc3cccc(Cl)c3)c2cc1OC` [AG1478], the “UV-induced tumor formation after topical application” value in data set [3] is “inhibit UV-induced tumor formation”.
With `Cn1c(=O)n(-c2ccc(C(C)(C)C#N)cc2)c2c3cc(-c4cnc5ccccc5c4)ccc3ncc21` [BEZ235], in data set [2] (20 mM topical ointment daily Monday-Friday, 15 mice with solitary cSCCs, by five weeks), the tumors completely regressed turned out to be 80%. Moreover, in data set [2] (20 mM topical ointment daily Monday-Friday, control ointment alone (FIG. 14)), the “regression of cSCCs in the treatment group compared to controls” value (“regression of cSCCs … compared to controls” below) is “marked regression”.
On to `CC(C)Cn1c2ccc(Nc3ncccn3)cc2c2c3c(c4c(c21)CCc1nn(C)cc1-4)C(=O)NC3` [CEP-11981, 13-isobutyl-4-methyl-10-(pyrimidin-2-ylamino)-4,7,8,13-tetrahydro-1H-indazolo[5,4-a]pyrrolo[3,4-c]carbazol-6(2H)-one], for which the “regression of cSCCs … compared to controls” value in data set [2] (setting [5]) is given as “marked regression”.
With `Nc1ncnc2c1cnn2-c1ccccc1` [PP3, 4-Amino-7-Phenylpyrazolpyrimidine], the half-maximal inhibitory concentration (IC50) – broadly, the concentration at which inhibition is half-maximal – on EGFR was 2700 nM. Further, in data set [2], the “outcome of treated cSCC in one mouse receiving both compounds” value is “unchanged” and the “treated tumors demonstrating significant tumor regression as defined by a 75% or greater decrease in tumor area” value is listed as “None”.
`N#C/C(=C\c1cc(Cl)cc(Cl)c1)c1cccnc1` [RG 14620]: the epidermal penetration entry in data set [4] is on record as “demonstrated epidermal penetration”.
Take `CN1CCN(CCOc2cc(OC3CCOCC3)c3c(Nc4c(Cl)ccc5c4OCO5)ncnc3c2)CC1` [Saracatinib, N-(5-chlorobenzo[d][1,3]dioxol-4-yl)-7-(2-(4-methylpiperazin-1-yl)ethoxy)-5-(tetrahydro-2H-pyran-4-yloxy)quinazolin-4-amine]: the “regression of cSCCs … compared to controls” value in data set [2] (setting [5]) is reported as “marked regression”.
The same measure, in the same setting: the value for `Cn1cnc2c(F)c(Nc3ccc(Br)cc3Cl)c(C(=O)NOCCO)cc21` [Selumetinib, 6-(4-bromo-2-chlorophenylamino)-7-fluoro-N-(2-hydroxyethoxy)-3-methyl-3H-benzo[d]imidazole-5-carboxamide] was “marked regression”; that for `C[C@@H]1CCN(C(=O)CC#N)C[C@@H]1N(C)c1ncnc2[nH]ccc12` [Tofacitinib, 3-[(3R,4R)-4-methyl-3-[methyl(7H-pyrrolo[2,3-d]pyrimidin-4-yl)amino]piperidin-1-yl]-3-oxopropanenitrile] was “marked regression”.
As to `CS/C(N)=C(C#N)/C(C#N)=C(\N)SC` [U0124, 2,3-Bis-[1-amino-1-methylsulfanyl-meth-(Z)-ylidene]-succinonitrile], in data set [2] (2 mice with 2 cSCCs of 1 mm^2, treated analogously to U0126), the “size of treated cSCCs” value is “stayed the same size”. Besides, the “regression of cSCCs” value in data set [2] (topical) is 0%.
As to `N#CC(=C(N)Sc1ccccc1N)C(C#N)=C(N)Sc1ccccc1N` [U0126, 1,4-diamino-2,3-dicyano-1,4-bis(2-aminophenylthio)butadiene], in data set [2] (topical), the “regression of cSCCs” value was 75+/−37%.
As to `Cc1nc(Nc2ncc(C(=O)Nc3c(C)cccc3Cl)s2)cc(N2CCN(CCO)CC2)n1.O` [dasatinib, N-(2-chloro-6-methylphenyl)-2-[[6-[4-(2-hydroxyethyl)-1-piperazinyl]-2-methyl-4-pyrimidinyl]amino]-5-thiazolecarboxamide, monohydrate], the “time by which clearance of a back cSCC was noted” value in data set [2] (1% ointment topically daily Monday-Friday for 25 applications (FIG. 13)) is ≤ 5 weeks. Further, the “original tumor area remaining” value in data set [2] (topical 1% ointment daily Monday-Friday, 11 mice with solitary cSCCs, after 5 weeks) was 4%.
